Data reported in patent publication US20260209177A1, “1-DEOXYNOJIRIMYCIN DERIVATIVE AND USE THEREOF” (ZHEJIANG UNIVERSITY, priority 2022, published 2026).

Columns and labels:
Con-Cybrids = test: JC-10 mitochondrial membrane potential in control cybrids; assay type: cell-based, human; conditions: 30 μM, 24 hours, FIG. 17B
Description: A method for detecting the mitochondrial membrane potential was the same as that previously described in Example 3. A difference is that 3 HCM-Cybrids cell clones were applied herein for detection to achieve the purpose of making the results more reliable. […] Next, the focus was on DNJ-1 and DNJ-5a to improve the situations of the membrane potential of Cybrids cells in a normal group and the addition of FCCP in different groups, as shown in FIG. 17B.
An operation method in FIG. 17B is as follows. 30 μM DNJ-1 and DNJ-5a drugs were added into Con-Cybrids and HCM-Cybrids cells, and after 24 hours, 50 μL of 10 μM FCCP diluted with a culture medium was added into 3 duplicate wells in each group. The FCCP, as a decoupling agent, was capable of disrupting the formation of mitochondrial membrane potential. 50 μL of a culture medium was added into 3 cloned duplicate wells in each group. The cells were placed in an environment with 5% of CO2 for culture at 37° C. for 30 min. 100×compound A (JC-10) was diluted with compound B (JC-10 Buffer A). A diluted liquid was added into a well plate at 25 μl per well. The cells were placed in an environment with 5% of CO2 for culture at 37° C. for 30 min. Before loading on a machine, JC-10 Buffer B was added into the well plate at 25 μL per well. Fluorescence values corresponding to Ex/Em=490 nm/525 nm and 540 nm/590 nm were detected by a microplate reader. […]

HCM-iPSC-CMs = test: Patch clamp action potential of iPSC-CMs; assay type: cell-based, human; conditions: 30 μM, 48 hours, compared with DNJ-1, FIG. 21
Protocol: TrypLE was added into induced cardiomyocytes, and after digestion at 37° C. for 3 min, an RPMI complete culture medium was added. The cells were centrifuged at a low speed, resuspended with RPMI/B27, and inoculated into an 8 mm Matrigel-coated slide at a ratio of 1:10. The cells were placed in an environment with 5% of CO2 for culture at 37° C. At 16 hours after the inoculation, the culture medium was replaced with a fresh RPMI/B27 culture medium, 30 μM small molecule drugs were added in an experimental group, and DMSO of an equal volume was added in a control group. At 48 hours after the culture, the action potential of the cardiomyocytes was recorded. Cell slides were removed, placed in a constant-temperature patch clamp bath at 37° C., and continuously perfused and rinsed with an extracellular fluid. Cell membranes of the cardiomyocytes were sucked and broken at a negative pressure, and the action potential of the cells capable of spontaneously pulsating was recorded. Data were collected and analyzed through Patch Master (HEKA), Fit Master (HEKA), Igor Pro (Wavemetrics) and Origin 6.1 (Microcal) software.

[1] = test system: C57BL/6J mice with Ang II-induced myocardial hypertrophy; test: Heart weight/body weight of Ang II mice; assay type: in vivo, mouse; conditions: 10 mg/kg/d intraperitoneal, 4 weeks, FIG. 23
Protocol: (§1) Model construction was performed by adopting C57BL/6J wild-type mice with subcutaneous implantation and perfusion of angiotensin II (AngII)/normal saline (Saline) through an Alzet Osmotic Pump 2004. Relevant statistical results were obtained after continuous feeding, modeling and administration for 4 weeks.
(§2) Administration method: Intraperitoneal injection was adopted at a drug dose of 10 mg/kg/d, drugs were dissolved in a phosphate buffer solution (PBS) and administered twice a day in the morning and the evening, and a placebo group was given a phosphate buffer solution (PBS) of a same volume.
After continuous feeding, modeling and administration for 4 weeks, indicators, such as body weight, of mice were measured before sampling, then the mice were deeply anesthetized with isoflurane, and the mice were sacrificed after completely losing the sense of pain. Hearts were obtained after the mice were sacrificed, and indicators, such as heart weight, were measured.
In histological analysis, the hearts of the mice were collected, cut along maximum cross sections, and fixed with 4% paraformaldehyde. Subsequently, paraffin embedding, sectioning and hematoxylin-eosin (HE) staining of the maximum cross sections were performed. […] The sections were scanned by a scanner (3DHISTECH), and obtained and measured through software slideviewer.

[2] = test system: C57BL/6J mice with Ang II-induced myocardial hypertrophy; test: Transmission electron microscopy of mitochondria in mouse heart tissue; assay type: in vivo; conditions: 10 mg/kg/d intraperitoneal, 4 weeks, TEM, FIG. 24
Protocol: as §1, §2
After mice were sacrificed, a small portion of left ventricular tissues were taken, and cardiac muscles were trimmed to achieve cubes with a size of 1 mm^3. According to arrangement directions of mitochondria in the cardiac muscle tissues, tissues were selected respectively along long axes and short axes of hearts, and samples for transmission electron microscopy were prepared subsequently. […]

SMILES	impact on the mitochondrial membrane potential of Con-Cybrids (Con-Cybrids)	proportion of electrophysiologically abnormal cells (action potential) (HCM-iPSC-CMs)	heart weight/body weight [1]	mitochondrial ultrastructure of heart tissue (crista, vacuolation proportion) [2]
O=C(CCCC[C@@H]1CCSS1)N1C[C@H](O)[C@@H](O)[C@H](O)[C@H]1CO [DNJ-1, 5-((R)-1,2-dithiolan-3-yl)-1-((2R,3R,4R,5S)-3,4,5-trihydroxy-2-(hydroxymethyl)piperidin-1-yl) p entan-1-one]	no impact	–	–	–
CC(C)(C)C(=O)OC[C@H]1NC[C@H](O)[C@@H](O)[C@@H]1O [DNJ-5a, ((2R,3R,4R,5S)-3,4,5-trihydroxypiperidin-2-yl)methyl pivalate]	no impact	improve the proportion of electrophysiologically abnormal cells in HCM-iPSC-CMs more significantly	better performance	more significantly improve the ultrastructure of the mitochondrial crista and decrease a vacuolation proportion
